From PubChem BioAssay (NCI)
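48-hour exposure; five concentrations; linearly interpolated endpoints. TGI denotes the concentration required for complete inhibition of growth.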

Experiments:
Test in all cases: inhibition of tumour cell growth, NCI panel, 48 h
[1] = tested on: 786-0 renal
[2] = tested on: A549 NSCLC
[3] = tested on: ACHN renal
[4] = tested on: CCRF-CEM leukemia
[5] = tested on: COLO 205 colon
[6] = tested on: DU-145 prostate
[7] = tested on: EKVX NSCLC
[8] = tested on: HCC-2998 colon
[9] = tested on: HCT-116 colon
[10] = tested on: HCT-15 colon
[11] = tested on: HL-60(TB) leukemia
[12] = tested on: HOP-62 NSCLC
[13] = tested on: HOP-92 NSCLC
[14] = tested on: HS 578T breast
[15] = tested on: HT29 colon
[16] = tested on: IGROV1 ovarian
[17] = tested on: K-562 leukemia
[18] = tested on: KM12 colon
[19] = tested on: LOX IMVI melanoma
[20] = tested on: M14 melanoma
[21] = tested on: MALME-3M melanoma
[22] = tested on: MDA-MB-231 breast
[23] = tested on: MDA-MB-435
[24] = tested on: MDA-N
[25] = tested on: MOLT-4 leukemia
[26] = tested on: NCI-H226 lung
[27] = tested on: NCI-H23 lung
[28] = tested on: NCI-H460 lung
[29] = tested on: NCI-H522 lung
[30] = tested on: NCI/ADR-RES ovarian
[31] = tested on: OVCAR-3 ovarian
[32] = tested on: OVCAR-4 ovarian
[33] = tested on: OVCAR-5 ovarian
[34] = tested on: OVCAR-8 ovarian
[35] = tested on: PC-3 prostate
[36] = tested on: RPMI-8226 leukemia
[37] = tested on: RXF 393 renal
[38] = tested on: SF-268 CNS
[39] = tested on: SF-295 CNS
[40] = tested on: SF-539 CNS
[41] = tested on: SK-MEL-2 melanoma
[42] = tested on: SK-MEL-28 melanoma
[43] = tested on: SK-MEL-5 melanoma
[44] = tested on: SK-OV-3 ovarian
[45] = tested on: SN12C renal
[46] = tested on: SNB-19 CNS
[47] = tested on: SNB-75 CNS
[48] = tested on: SR leukemia
[49] = tested on: SW-620 colon
[50] = tested on: T-47D breast
[51] = tested on: TK-10 renal
[52] = tested on: U251 CNS
[53] = tested on: UACC-257 melanoma
[54] = tested on: UACC-62 melanoma
[55] = tested on: A498 renal
[56] = tested on: BT-549 breast
[57] = tested on: CAKI-1 renal
[58] = tested on: MCF7 breast
[59] = tested on: UO-31 renal

CN(C)CCCN1c2ccc([N+](=O)[O-])cc2CCc2cccc([N+](=O)[O-])c21
TGI [1]: 26.5 µM
TGI [2]: 29.5 µM
TGI [3]: 31.5 µM
TGI [4]: 46.4 µM
TGI [5]: 28.6 µM
TGI [6]: 31.2 µM
TGI [7]: 39.1 µM
TGI [8]: 26.3 µM
TGI [9]: 27.3 µM
TGI [10]: 30.5 µM
TGI [11]: 37 µM
TGI [12]: 27 µM
TGI [13]: 26.8 µM
TGI [14]: 31.7 µM
TGI [15]: 32.5 µM
TGI [16]: 29.7 µM
TGI [17]: 52 µM
TGI [18]: 28.9 µM
TGI [19]: 31.8 µM
TGI [20]: 28 µM
TGI [21]: 28 µM
TGI [22]: 26.1 µM
TGI [23]: 27.7 µM
TGI [24]: 29.2 µM
TGI [25]: 51.5 µM
TGI [26]: 29.3 µM
TGI [27]: 31.2 µM
TGI [28]: 29.2 µM
TGI [29]: 32.1 µM
TGI [30]: 30.4 µM
TGI [31]: 28.8 µM
TGI [32]: 13.9 µM
TGI [33]: 33.3 µM
TGI [34]: 32.3 µM
TGI [35]: 42.8 µM
TGI [36]: 98.7 µM
TGI [37]: 22.8 µM
TGI [38]: 29 µM
TGI [39]: 28.2 µM
TGI [40]: 31.5 µM
TGI [41]: 33.5 µM
TGI [42]: 30.1 µM
TGI [43]: 30.2 µM
TGI [44]: 30.8 µM
TGI [45]: 28.6 µM
TGI [46]: 36.1 µM
TGI [47]: 26.5 µM
TGI [48]: > 100 µM
TGI [49]: 39.5 µM
TGI [50]: 37.2 µM
TGI [51]: 23.2 µM
TGI [52]: 29.3 µM
TGI [53]: 27.6 µM
TGI [54]: 10.4 µM

CCN(CC)c1ccc2cc(C(N)=O)c(=N)oc2c1
TGI [1]: > 100 µM
TGI [55]: > 100 µM
TGI [2]: > 100 µM
TGI [3]: > 100 µM
TGI [56]: > 100 µM
TGI [57]: > 100 µM
TGI [4]: > 100 µM
TGI [5]: > 100 µM
TGI [6]: > 100 µM
TGI [8]: 57.2 µM
TGI [9]: > 100 µM
TGI [10]: > 100 µM
TGI [11]: > 100 µM
TGI [12]: > 100 µM
TGI [13]: > 100 µM
TGI [14]: 45.8 µM
TGI [15]: > 100 µM
TGI [16]: 80.7 µM
TGI [17]: > 100 µM
TGI [18]: > 100 µM
TGI [19]: > 100 µM
TGI [20]: > 100 µM
TGI [22]: > 100 µM
TGI [23]: > 100 µM
TGI [24]: > 100 µM
TGI [25]: > 100 µM
TGI [26]: > 100 µM
TGI [27]: > 100 µM
TGI [28]: > 100 µM
TGI [30]: > 100 µM
TGI [31]: > 100 µM
TGI [32]: 74.1 µM
TGI [33]: > 100 µM
TGI [34]: > 100 µM
TGI [35]: 87.6 µM
TGI [36]: > 100 µM
TGI [37]: > 100 µM
TGI [38]: > 100 µM
TGI [40]: > 100 µM
TGI [41]: 54.1 µM
TGI [42]: > 100 µM
TGI [43]: > 100 µM
TGI [44]: > 100 µM
TGI [45]: > 100 µM
TGI [46]: > 100 µM
TGI [47]: > 100 µM
TGI [48]: > 100 µM
TGI [49]: > 100 µM
TGI [50]: 83.9 µM
TGI [52]: > 100 µM
TGI [53]: > 100 µM
TGI [54]: > 100 µM

Cc1ccc(-c2n[nH]c(Cc3nc(-c4ccc(C)cc4)n[nH]3)n2)cc1
TGI [1]: > 100 µM
TGI [2]: > 100 µM
TGI [3]: > 100 µM
TGI [56]: > 100 µM
TGI [4]: > 100 µM
TGI [5]: > 100 µM
TGI [6]: > 100 µM
TGI [7]: > 100 µM
TGI [8]: > 100 µM
TGI [9]: > 100 µM
TGI [10]: > 100 µM
TGI [12]: > 100 µM
TGI [13]: > 100 µM
TGI [15]: > 100 µM
TGI [16]: > 100 µM
TGI [17]: > 100 µM
TGI [18]: > 100 µM
TGI [19]: > 100 µM
TGI [20]: > 100 µM
TGI [58]: > 100 µM
TGI [22]: > 100 µM
TGI [23]: > 100 µM
TGI [24]: > 100 µM
TGI [25]: > 100 µM
TGI [27]: > 100 µM
TGI [29]: > 100 µM
TGI [30]: > 100 µM
TGI [31]: > 100 µM
TGI [32]: > 100 µM
TGI [33]: > 100 µM
TGI [34]: > 100 µM
TGI [35]: > 100 µM
TGI [36]: > 100 µM
TGI [37]: > 100 µM
TGI [38]: > 100 µM
TGI [39]: > 100 µM
TGI [40]: > 100 µM
TGI [41]: > 100 µM
TGI [42]: > 100 µM
TGI [43]: > 100 µM
TGI [44]: > 100 µM
TGI [45]: > 100 µM
TGI [46]: > 100 µM
TGI [47]: > 100 µM
TGI [49]: > 100 µM
TGI [51]: > 100 µM
TGI [52]: 33.8 µM
TGI [53]: > 100 µM
TGI [54]: > 100 µM
TGI [59]: > 100 µM
